Results on 98 compounds are retold here after ChEMBL document CHEMBL3507680, “University of Dundee, Gates Library screen for HepG2 cell viability”.

This data set is described as follows: Human HepG2 cell viability assay in 384 well format. Also noted: dose 125 nL, time 70.5 hour; concentration not given beside the values. Conditions: HepG2 cells, read-out: Inhibition. It counts as toxicity, cell-based.
As to `CCN(CC1CCOC1)C(=O)c1cc(F)ccc1N1CCN(C)CC1` (stereo not drawn), the cytotoxicity at 70.5 h was found to be 46%.
The same measure for `C[C@H](NC(=O)N1CCN(c2ccc(Cl)cc2)CC1)C(=O)N1CCSCC1`: -14.7%; for `CC(C)C1COC2(CCN(Cc3ccco3)CC2)C1` (stereo not drawn): -7.19%.
The same measure for `Cc1nc2n(n1)CC(NCc1c(Cl)ccc3cccnc13)CC2` (stereo not drawn): -9.95%.
Next, `CS(=O)(=O)N1CCC2(CCN(C(=O)c3cccnc3)CC2)C1`: -7.54%; `Cn1ncc2c1C(COCC1CC1)CN(Cc1ccoc1)C2` (stereo not drawn): -6.88%; `c1coc(CN2CCO[C@H]3[C@@H](OCC4CC4)CC[C@@H]32)c1`: -7.18%.
Consider `Cc1ccccc1-c1cncc(C2CCN(CC(=O)N(C)C)CC2)n1`, for which the cytotoxicity at 70.5 h was -3.4%.
The same measure for `Cc1nc(CN2CCCC3(CCN(c4cccnc4)C3=O)C2)cs1` (stereo not drawn): 14.2%; for `CN1CCN(C(=O)[C@@H]2C[C@@H]3CCN(c4cccc(F)c4)C[C@H]3O2)CC1`: -11.9%; for `O=C1CC(c2ccncc2)C2(CCN(C(=O)c3ccc[nH]3)CC2)N1` (stereo not drawn): 23.7%.
Next, `Cc1ncsc1C(=O)N1CCN(CCC(C)C)CC1`: -6.29%; `c1ccc(CO[C@H]2C[C@@H]3CN(Cc4cncnc4)C[C@@H]3C2)cc1`: -5.58%.
The same measure for `CN(C)CCN1CC(C(=O)NCc2cn3cccnc3n2)CC1=O` (stereo not drawn): -5.17%.
As to `Cc1cccnc1NC(=O)NC(C)Cn1cccn1` (stereo not drawn), the cytotoxicity at 70.5 h is -7.34%.
Consider `Cc1cc(C)n(C2CN(Cc3nc4cc(Cl)ccc4n3C)C2)n1`, for which the cytotoxicity at 70.5 h amounted to 4.28%.
The same measure for `COCC(=O)N1CCN(CCn2cccn2)c2nc(C)ccc2C1`: 0.00132%; for `O=c1ccc2c(n1CC1CC1)CCC(NS(=O)(=O)C1CC1)C2` (stereo not drawn): 21.2%.
Next, `Cc1nc(-c2ccccc2)sc1C(=O)NCCNc1ncccn1`: 1.41%; `CN1N=C(C(=O)N2CCCN(c3ncccc3C#N)CC2)CCC1=O`: 3.72%.
Next, `CC(CNCc1ccc(Cl)cc1)Oc1ccccn1` (stereo not drawn): -10%; `O=C1CCOC[C@]2(CN(Cc3ccccc3)C[C@H]2c2cccnc2)N1`: 15.4%.
Consider `COCCNC(=O)[C@@H](C)[C@@H]1CCc2c(C)cc(OCC(=O)O)c(C)c2C1`, for which the cytotoxicity at 70.5 h was -6%.
Next, `CCC(=O)N(C)Cc1cccc(OC(C)C)c1`: -5.79%.
Next, `COc1cccc(CNC(=O)CC2CSc3ncc(C)c(=O)n32)c1` (stereo not drawn): 10.1%.
Take `CN(C)C(=O)CO[C@@H]1CN(Cc2ccccc2F)[C@@H]2CCCO[C@@H]21`: the cytotoxicity at 70.5 h was -6.14%.
The same measure for `CN(Cc1csc(-c2cccs2)n1)CC(O)CO` (stereo not drawn): 18.7%.
Next, `O=C(Nc1ccc(Cl)cn1)C1CCCN(Cc2ccccn2)C1` (stereo not drawn): -1.12%; `CCN(CC)Cc1nc2c(o1)CN(S(=O)(=O)c1cccs1)C2`: -10.4%; `Cc1cc(NCCNS(=O)(=O)c2cccc(Cl)c2)nc(C)n1`: -1%.
Next, `Cc1nnc2n1CCN(C(=O)c1cn(-c3ccc(F)cc3)nn1)C2`: -0.105%; `CCn1nc2c(cc1=O)CN(Cc1nc(-c3ccsc3)no1)CC2`: -22.4%.
Take `CSCCC(NC(N)=O)C(=O)NCc1c(C)nn(-c2ccccc2)c1C` (stereo not drawn): the cytotoxicity at 70.5 h is -4.27%.
The same measure for `COCCn1cnc2c(F)cc(Br)cc2c1=O`: -3.14%.
As to `CCc1ccc(C(=O)NCCNc2ncccn2)cc1`, the cytotoxicity at 70.5 h stood at 11.9%.
Next, `O=C1COC2(COCCN(Cc3ccsc3)C2)CN1c1ccoc1` (stereo not drawn): 32.5%.
The same measure for `O=C(c1ccc(N2CCCC2)nc1)N1CCCC(c2nccs2)C1` (stereo not drawn): -20.6%; for `COCCN1CCc2c(cnc(-c3ccccc3)c2C(=O)O)C1`: -9.19%.
The same measure for `CCc1cc(C(=O)N2CCCC(c3cc(=O)nc4n3CCC4)C2)no1` (stereo not drawn): -6.36%; for `COCCc1noc(C2CCN(S(=O)(=O)c3cccs3)CC2)n1`: 10.6%; for `NC(=O)[C@@H]1Cc2ccccc2CN1S(=O)(=O)N1CCCCC1`: -1.22%.
Regarding `COC[C@]12COC[C@H]1CN(Cc1ccc3c(c1)OCO3)C2`, the cytotoxicity at 70.5 h is -6.87%.
The same measure for `Cc1ncsc1CN1C[C@@H](OCC2CC2)[C@H]2OCCC[C@H]21`: -5.13%; for `Cc1ncc(C(=O)NCCNc2ncccn2)s1`: -2.18%.
Next, `CCN(Cc1nnnn1C1CC1)c1cc(C)ccc1C`: -2.4%.
The same measure for `COCc1nc2cc(NCc3ccc(C)o3)ccc2o1`: 0.17%.
As for `CCc1nnc(Nc2cccc(C3CCN(C(=O)CNC)CC3)n2)s1`, the cytotoxicity at 70.5 h stood at 10.1%.
Regarding `COc1nn(C)cc1-c1nnc(SCc2cccnc2)n1C`, the cytotoxicity at 70.5 h was -5.69%.
As to `COc1cc(N2C[C@@H]3COC[C@]3(COc3ccc(C#N)cn3)C2)ncn1`, the cytotoxicity at 70.5 h was found to be 7.01%.
The same measure for `CS(=O)(=O)N1CCOC2(CCN(c3nccs3)CC2)c2ccccc21`: 15.3%.
As for `CCOC(C)c1nc(CN2CCNCC2)cs1` (stereo not drawn), the cytotoxicity at 70.5 h is 10.9%.
`Cc1nc2ccccc2c(=O)n1Cc1nnnn1C1CC1`: the cytotoxicity at 70.5 h came out at 1.18%.
Next, `C[C@@H]1C[C@@H]2CCN(C(=O)c3ccncn3)C[C@H]2O1`: -7.65%.
The same measure for `COCCOCC(=O)N1C[C@H]2CC[C@@H]1CN(C1Cc3ccccc3C1)C2`: -9.96%.
Next, `O=C1O[C@@H]2CN(c3ccc(Cl)cn3)C[C@@H]2N1CCc1ccc(F)cc1`: -8.87%.
`O=C(NCC1CCOCC1)c1cc(-c2ccncc2)c2cnccc2n1`: the cytotoxicity at 70.5 h was -2.01%.
The same measure for `Cc1nn(C)cc1-c1cc(C(F)(F)F)n(CCCN)n1`: -0.484%; for `CN(Cc1cc2n(n1)CCCNC2)Cc1ccno1`: -5.8%.
Next, `O=C(c1ccccn1)N1CCC2(CC1)CN(c1cncnc1)C(=O)CO2`: -12.2%; `Cc1cc(N2CCC(NC(C)Cc3ccsc3)CC2)nc(C)n1` (stereo not drawn): -2.86%; `COc1ccc2c(c1)C(C(=O)N(C)CCCc1nccn1C)CC(=O)N2` (stereo not drawn): 5.74%.
The same measure for `CNC(=O)c1ccc(NC2CCN(CC(F)(F)F)C2=O)cc1Cl` (stereo not drawn): -7.41%.
Take `COCCNCc1cc2cc(C)cc(C)c2[nH]c1=O`: the cytotoxicity at 70.5 h was -4.55%.
`CCn1c(CC2CCN(C(=O)c3ccnn3C)CC2)n[nH]c1=O`: the cytotoxicity at 70.5 h is -6.64%.
For `Cc1cnc(C(=O)N(CCN(C)C)Cc2ccc(Cl)cc2)cn1`, the cytotoxicity at 70.5 h is -6.08%.
Take `Cc1noc(C)c1CN1CCC(NC(=O)OC(C)(C)C)CC1`: the cytotoxicity at 70.5 h is -0.745%.
The same measure for `CC(C)(NCc1cccc(C(N)=O)c1)c1ccc2c(c1)OCO2`: -10%.
The same measure for `CC(C)[C@H](NC(=O)N1CCC(Cc2ccccc2)CC1)C(=O)O`: -8.02%; for `CCc1cc(CNCc2ccccc2N(C)C2CCN(C)CC2)on1`: -1.28%; for `Cc1nn(C)c(N2CCOCC2)c1CNCc1ccc2c(c1)OCO2`: -5.61%.
Next, `O=C(Nc1cc(C2CCOCC2)[nH]n1)c1cc[nH]n1`: -4.17%.
As to `CCN1CC(CN(C)Cc2nc(-c3ccc(F)cc3F)oc2C)CC1=O` (stereo not drawn), the cytotoxicity at 70.5 h came out at 2.47%.
Turning to `Cn1ncnc1-c1ccnc(N2CCC(C(O)c3cccs3)CC2)n1` (stereo not drawn), the cytotoxicity at 70.5 h was -10.9%.
`CCN(c1cc(C)cc(C)c1)S(=O)(=O)c1cc(C(=O)O)cs1`: the cytotoxicity at 70.5 h was -7.47%.
As to `Cc1ccsc1C(=O)N1CC2CC1(C(=O)NCC1CC1)C2`, the cytotoxicity at 70.5 h was -16.8%.
The same measure for `CC1CN(c2ccc(C#N)cn2)CCN1c1ccc2nncn2n1` (stereo not drawn): -4.47%.
Turning to `O=C(CN1CCc2[nH]c3ccccc3c2C1)NCc1ccco1`, the cytotoxicity at 70.5 h was -10.8%.
The same measure for `c1nnc(Nc2cncc(C3CCCN3)n2)s1` (stereo not drawn): -7.63%; for `COc1ccc(C2Nc3cc(Cl)ccc3C3=NCCN32)cc1O` (stereo not drawn): -1.91%.
Next, `CCOc1ccccc1C1=CCN(C(=O)C2CCN(C)C(=O)C2)CC1` (stereo not drawn): 16.3%; `Cc1noc(C)c1CN1CCC2(CC1)CC(Oc1cccnc1)C2`: -9.29%.
Next, `CC(C)CN1CCC2(CC1)C(=O)Nc1ccc(C(=O)N(C)C)cc12`: -10.1%.
`Cc1ncc(CN(C)CC(O)c2cccc(C(F)(F)F)c2)s1` (stereo not drawn): the cytotoxicity at 70.5 h came to 17.1%.
Next, `Cc1csc(CNC(=O)NC2CCCN(S(C)(=O)=O)C2)n1` (stereo not drawn): -12.3%; `Cc1ccc(NC(=O)NC(C)C(=O)N2CCS(=O)(=O)CC2)cc1` (stereo not drawn): -7.48%.
Next, `CNC(=O)c1cc(-c2ccccc2)nc2ncnn12`: 7.79%.
Next, `COCC(O)CN1CCC(=O)N(CC=C(C)C)Cc2ccccc21` (stereo not drawn): -6.53%.
For the compound `O=C1CC[C@@H]2[C@@H](CCN2C(=O)C2CCOCC2)N1CC1CC1`, the cytotoxicity at 70.5 h was -8.18%.
Next, `CS(=O)(=O)c1ccc(CNC[C@H]2COCc3nc4ccccc4n32)cc1`: 5.94%; `Cc1cc(CN(C)C(=O)NC2CCN(c3ncccn3)CC2)no1`: -0.403%.
Next, `Cc1nn(C)c(C)c1C1CCCN1c1ncnc2sccc12` (stereo not drawn): 3.73%.
Next, `CC(=O)N1CCC(c2nnc3ccc(C(=O)NCC(C)C)cn23)C1` (stereo not drawn): -12.8%.
For the compound `CN1CCCc2ccc(S(=O)(=O)NC(=O)C3CC=CC3)cc21`, the cytotoxicity at 70.5 h was -3.77%.
Next, `CN(C)C(=O)CN1C(=O)CCC12CCN(Cc1ccsc1)CC2`: -15.7%.
In the case of `CN1CC2(CCC1=O)CCN(CC[C@@H](O)c1ccccc1)CC2`, the cytotoxicity at 70.5 h worked out at 19.6%.
Next, `CC(=O)N[C@H](C)c1c(-c2ccc(Cl)cc2)noc1C(=O)O`: -6.07%.
Next, `Nc1nc(CN2CCCC(Cn3cncn3)C2)nc2ccccc12` (stereo not drawn): 1.03%.
Next, `Cn1ccnc1CN(CCCO)CC(F)(F)F`: 0.0577%.
